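The concentration for 50% growth inhibition is given as GI50. TGI is the concentration that stops growth completely.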
Legend:
Assay in all cases: DTP human tumour cell line panel, 384-well format
786-0 renal = tested on: 786-0 renal
SNB-75 CNS = tested on: SNB-75 CNS
M14 melanoma = tested on: M14 melanoma
IGROV1 ovarian = tested on: IGROV1 ovarian
HT29 colon = tested on: HT29 colon
MALME-3M melanoma = tested on: MALME-3M melanoma
LOX IMVI melanoma = tested on: LOX IMVI melanoma
MCF7 breast = tested on: MCF7 breast
OVCAR-4 ovarian = tested on: OVCAR-4 ovarian
OVCAR-8 ovarian = tested on: OVCAR-8 ovarian
SK-MEL-28 melanoma = tested on: SK-MEL-28 melanoma
NCI-H322M lung = tested on: NCI-H322M lung
PC-3 prostate = tested on: PC-3 prostate

For `CC(C)(O)CNc1nc(Nc2ccnc(C(F)(F)F)c2)nc(-c2cccc(C(F)(F)F)n2)n1`, the GI50 (786-0 renal) was 17.4 µM, the TGI (786-0 renal) was 37.6 µM and the GI50 (SNB-75 CNS) was 18.8 µM. It also gave a TGI (SNB-75 CNS) of 37.2 µM, a GI50 (M14 melanoma) of 19.8 µM and a TGI (M14 melanoma) of 35.2 µM. It also gave a GI50 (IGROV1 ovarian) of 18.6 µM, a TGI (IGROV1 ovarian) of 37.4 µM and a GI50 (HT29 colon) of 15.2 µM. It also gave a TGI (HT29 colon) of 29.6 µM, a GI50 (MALME-3M melanoma) of 18.4 µM and a TGI (MALME-3M melanoma) of 33.9 µM. It also gave a GI50 (LOX IMVI melanoma) of 10.7 µM, a TGI (LOX IMVI melanoma) of 25.1 µM and a GI50 (MCF7 breast) of 15.9 µM. For the same molecule, the TGI (MCF7 breast) was 30.5 µM, the GI50 (OVCAR-4 ovarian) was 19.7 µM and the TGI (OVCAR-4 ovarian) was 36.3 µM. The GI50 (OVCAR-8 ovarian) was 17.4 µM, the TGI (OVCAR-8 ovarian) was 38.3 µM and the GI50 (SK-MEL-28 melanoma) was 16.9 µM. The TGI (SK-MEL-28 melanoma) was 31 µM, the GI50 (NCI-H322M lung) was 16.1 µM and the TGI (NCI-H322M lung) was 31.4 µM. For the same molecule, the GI50 (PC-3 prostate) was 18.2 µM and the TGI (PC-3 prostate) was 33.9 µM.
